The record followed here is US6800652B2, “Diaryl compounds” (Pfizer Inc., priority 2002, dated 2004).

Common to all, as to format: cell-based
Test [1] deals with T1, human serotonin transporter (hSERT) (Homo sapiens, UniProt P31645).
T1 construct: expressed in transfected cells
Description: Inhibition of 3H-serotonin uptake in HEK-293 cells stably transfected with hSERT. As to conditions: HEK-293 hSERT cells, 3H-5HT 50 nM, 5 min incubation, room temperature; read-out: SRI (serotonin re-uptake inhibition) IC50. On the procedure: A number of compounds were tested for biological activity by their ability to inhibit the uptake of serotonin by human serotonin transporters as follows.
(§1) Human embryonic kidney cells (HEK-293) stably transfected with either the human serotonin transporter (hSERT), noradrenaline transporter (hNET) or dopamine transporter (hDAT) were cultured under standard cell culture techniques (cells were grown at 37° C. and 5% CO2 in DMEM-culture media (supplemented with 10% dialysed foetal calf serum (FCS), 2 mM I-glutamine and 250 μg/ml geneticin)). Cells were harvested for the assay to yield a cell suspension of 750,000 cells/ml.
(§2) All test compounds were dissolved in 100% DMSO and diluted down in assay buffer to give appropriate test concentrations. Assays were carried out in 96-well filter bottom plates. Cells (7500 cells/assay well) were pre-incubated in standard assay buffer containing either test compound, standard inhibitor or compound vehicle (1% DMSO) for 5 minutes. Reactions were started by addition of either ^3H-Serotonin, ^3H-Noradrenaline or ^3H-Dopamine substrates. All reactions were carried out at room temperature in a shaking incubator. […] The quantity of ^3H-substrate incorporated into the cells was then quantified.
(§3) Assay plates were dried in a microwave oven, scintillation fluid added, and radioactivity measured. […]

The target of test [2] is T2, dopamine transporter (hDAT) (Homo sapiens, UniProt Q01959).
T2 construct: expressed in transfected cells
Description: Inhibition of 3H-dopamine uptake in HEK-293 cells stably transfected with hDAT. As to conditions: HEK-293 hDAT cells, 3H-Dopamine 200 nM, 5 min incubation, room temperature; read-out: DRI (dopamine re-uptake inhibition) IC50. On the procedure:
as §1
as §2, with “incubator. Incubation times were 5 minutes for the hSERT and hDAT assays and 15 minutes for the hNET assay.” for “incubator.”
as §3

Test [3] deals with T3, noradrenaline transporter (hNET) (Homo sapiens, UniProt P23975).
T3 construct: expressed in transfected cells
Description: Inhibition of 3H-noradrenaline uptake in HEK-293 cells stably transfected with hNET. As to conditions: HEK-293 hNET cells, 3H-Noradrenaline 200 nM, 15 min incubation, room temperature; read-out: NRI (noradrenaline re-uptake inhibition) IC50. On the procedure: as §1
as §2, with “incubator. Incubation times were 5 minutes for the hSERT and hDAT assays and 15 minutes for the hNET assay.” for “incubator.”
as §3

T3 sequence (P23975 whole entry): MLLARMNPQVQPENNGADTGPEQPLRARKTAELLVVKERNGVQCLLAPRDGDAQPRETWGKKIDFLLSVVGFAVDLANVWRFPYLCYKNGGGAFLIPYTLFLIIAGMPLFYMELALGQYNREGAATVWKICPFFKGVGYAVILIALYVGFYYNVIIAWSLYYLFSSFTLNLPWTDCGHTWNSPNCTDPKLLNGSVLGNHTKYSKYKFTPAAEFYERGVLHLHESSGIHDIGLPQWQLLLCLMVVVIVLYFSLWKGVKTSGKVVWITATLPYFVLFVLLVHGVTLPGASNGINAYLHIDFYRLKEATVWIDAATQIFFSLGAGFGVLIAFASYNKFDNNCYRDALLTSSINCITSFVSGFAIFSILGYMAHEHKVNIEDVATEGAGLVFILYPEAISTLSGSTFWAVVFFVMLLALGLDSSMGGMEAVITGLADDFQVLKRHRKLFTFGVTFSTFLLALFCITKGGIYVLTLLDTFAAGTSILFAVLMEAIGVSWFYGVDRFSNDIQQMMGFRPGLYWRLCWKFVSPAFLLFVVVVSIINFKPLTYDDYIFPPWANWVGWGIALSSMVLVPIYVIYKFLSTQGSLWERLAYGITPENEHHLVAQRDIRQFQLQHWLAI
T2 sequence (Q01959 whole entry): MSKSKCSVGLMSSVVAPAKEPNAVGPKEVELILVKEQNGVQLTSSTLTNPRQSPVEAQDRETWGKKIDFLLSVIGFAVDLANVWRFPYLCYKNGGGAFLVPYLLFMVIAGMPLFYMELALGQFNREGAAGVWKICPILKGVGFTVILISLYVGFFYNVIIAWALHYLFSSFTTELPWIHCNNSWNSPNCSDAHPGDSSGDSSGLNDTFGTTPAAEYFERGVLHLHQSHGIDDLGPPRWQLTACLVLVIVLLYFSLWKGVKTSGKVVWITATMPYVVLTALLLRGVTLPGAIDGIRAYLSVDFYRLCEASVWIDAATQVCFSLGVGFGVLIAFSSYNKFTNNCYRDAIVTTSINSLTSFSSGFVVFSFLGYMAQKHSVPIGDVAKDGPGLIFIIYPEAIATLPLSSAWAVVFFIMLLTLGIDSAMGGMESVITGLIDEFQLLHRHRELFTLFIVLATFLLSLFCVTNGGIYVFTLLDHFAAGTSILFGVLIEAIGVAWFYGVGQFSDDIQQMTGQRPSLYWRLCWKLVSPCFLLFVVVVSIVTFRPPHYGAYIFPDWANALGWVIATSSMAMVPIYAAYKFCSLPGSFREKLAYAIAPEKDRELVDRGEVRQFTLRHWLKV
T1 sequence (P31645 whole entry): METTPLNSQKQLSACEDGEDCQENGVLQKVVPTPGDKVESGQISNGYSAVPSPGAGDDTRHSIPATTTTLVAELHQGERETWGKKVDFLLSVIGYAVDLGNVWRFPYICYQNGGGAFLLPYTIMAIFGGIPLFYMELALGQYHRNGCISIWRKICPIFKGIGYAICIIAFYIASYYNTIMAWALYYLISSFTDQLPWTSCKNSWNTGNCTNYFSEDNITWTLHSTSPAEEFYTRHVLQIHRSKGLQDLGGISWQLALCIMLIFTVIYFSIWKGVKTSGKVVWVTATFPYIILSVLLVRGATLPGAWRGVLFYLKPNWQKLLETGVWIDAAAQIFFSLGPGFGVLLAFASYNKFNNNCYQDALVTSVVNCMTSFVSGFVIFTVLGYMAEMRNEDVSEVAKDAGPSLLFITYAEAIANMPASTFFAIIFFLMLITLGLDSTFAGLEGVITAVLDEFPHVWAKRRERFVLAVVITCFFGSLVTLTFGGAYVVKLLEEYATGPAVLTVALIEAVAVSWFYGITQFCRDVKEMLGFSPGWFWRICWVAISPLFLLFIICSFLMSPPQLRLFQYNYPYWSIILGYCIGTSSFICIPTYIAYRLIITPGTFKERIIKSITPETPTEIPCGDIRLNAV

Consider `CSc1ccc(Sc2ccncc2CN(C)C)cc1` [Example 2, N,N-Dimethyl-N-[(4-{[4-(methylsulfanyl)phenyl]sulfanyl}-3-pyridinyl)methyl]amine], for which the results for the 50% inhibitory concentration (IC50) in test [1], in test [2] and in test [3] were 2.2 nM, 11700 nM and 564 nM, respectively.

Usually IC50 stands for the concentration needed to halve the response being measured.
